In PMC12951562, “SH2scan: Mapping SH2 Domain-Ligand Binding Selectivity for Inhibitors and Degraders” (Journal of Medicinal Chemistry, 2026):
Like-named read-outs stand apart in the source and are kept apart here. Non-standard residues stand in square brackets, D forms with d. Residues, ends and D or L forms follow the SMILES beside them. *: point of attachment. pY = N[C@@H](Cc1ccc(OP(=O)(O)O)cc1)C(=O)O; Caffeoyl = O=C(/C=C/c1ccc(O)c(O)c1)*

Legend:
Assay type in all cases: binding
[1] = target: T1, CISH (Homo sapiens, UniProt Q9NSE2); assay: biochemical; conditions: for remaining activity at 10 µM: read-out: percent of DMSO vehicle control
T1 construct: the DNA-tagged SH2 domain concentrations used in this study were <0.1 nM; made in house; host or cells: HEK293 (transient transfection; unpurified extract)
T1 sequence (Q9NSE2 82-163 limits assumed): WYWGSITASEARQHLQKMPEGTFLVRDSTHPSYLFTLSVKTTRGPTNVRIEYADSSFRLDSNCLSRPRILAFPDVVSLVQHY

[2] = target: T2, STAT3(S614R)-nonphosphorylated (Homo sapiens, UniProt P40763, S614R); assay: biochemical
T2 construct: made in house; host or cells: HEK293 (transient transfection), unpurified extract, dephosphorylated by endogenous phosphatases

[3] = target: T3, TNS4 (Homo sapiens, UniProt Q8IZW8); assay: biochemical; conditions: for remaining activity at 10 µM: read-out: percent of DMSO vehicle control
T3 construct: made in house; host or cells: HEK293 (transient transfection), unpurified extract
T3 sequence (Q8IZW8 19-715): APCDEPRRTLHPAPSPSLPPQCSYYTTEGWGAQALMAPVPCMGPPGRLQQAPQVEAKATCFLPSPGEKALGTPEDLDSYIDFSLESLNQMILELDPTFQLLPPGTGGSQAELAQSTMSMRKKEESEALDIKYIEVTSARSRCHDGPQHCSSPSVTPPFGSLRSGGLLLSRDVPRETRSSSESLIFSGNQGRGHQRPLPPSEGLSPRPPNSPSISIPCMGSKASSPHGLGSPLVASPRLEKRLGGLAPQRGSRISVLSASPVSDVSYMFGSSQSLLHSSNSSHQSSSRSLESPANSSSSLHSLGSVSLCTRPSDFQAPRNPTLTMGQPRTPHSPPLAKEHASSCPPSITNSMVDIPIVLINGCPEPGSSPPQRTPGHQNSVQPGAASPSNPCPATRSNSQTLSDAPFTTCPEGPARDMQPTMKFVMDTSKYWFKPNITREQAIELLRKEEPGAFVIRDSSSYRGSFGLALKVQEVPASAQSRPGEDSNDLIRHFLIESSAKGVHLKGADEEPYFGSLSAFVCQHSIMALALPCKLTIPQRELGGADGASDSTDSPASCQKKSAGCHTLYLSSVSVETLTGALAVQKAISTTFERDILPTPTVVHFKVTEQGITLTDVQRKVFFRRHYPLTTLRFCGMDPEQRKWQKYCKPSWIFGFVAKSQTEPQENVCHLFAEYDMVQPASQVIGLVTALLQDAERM

[4] = target: T4, PTPN11(SH2dom.N-term.) (Homo sapiens, UniProt Q06124); conditions: primary screen, 10 μM
T4 construct: SH2dom.N-term. denotes SH2 domain closest to N-terminus of protein; made in house; host or cells: HEK293 (transient transfection, unpurified extract)
T4 sequence (Q06124 6-102 limits assumed): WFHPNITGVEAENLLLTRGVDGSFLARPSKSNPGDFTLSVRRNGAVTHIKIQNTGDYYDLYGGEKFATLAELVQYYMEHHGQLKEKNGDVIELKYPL

[5] = target: T5, STAT3(D661Y)-nonphosphorylated (Homo sapiens, UniProt P40763, D661Y); assay: biochemical
T5 construct: made in house; host or cells: HEK293 (transient transfection), unpurified extract, dephosphorylated by endogenous phosphatases

[6] = target: T6, STAT3(N647I)-nonphosphorylated (Homo sapiens, UniProt P40763, N647I); assay: biochemical
T6 construct: made in house; host or cells: HEK293 (transient transfection), unpurified extract, dephosphorylated by endogenous phosphatases

[7] = target: T7, SHIP2 (Homo sapiens, UniProt O15357); assay: biochemical; conditions: for remaining activity at 10 µM: read-out: percent of DMSO vehicle control
T7 construct: made in house; host or cells: HEK293 (transient transfection), unpurified extract
T7 sequence (O15357 1-1258): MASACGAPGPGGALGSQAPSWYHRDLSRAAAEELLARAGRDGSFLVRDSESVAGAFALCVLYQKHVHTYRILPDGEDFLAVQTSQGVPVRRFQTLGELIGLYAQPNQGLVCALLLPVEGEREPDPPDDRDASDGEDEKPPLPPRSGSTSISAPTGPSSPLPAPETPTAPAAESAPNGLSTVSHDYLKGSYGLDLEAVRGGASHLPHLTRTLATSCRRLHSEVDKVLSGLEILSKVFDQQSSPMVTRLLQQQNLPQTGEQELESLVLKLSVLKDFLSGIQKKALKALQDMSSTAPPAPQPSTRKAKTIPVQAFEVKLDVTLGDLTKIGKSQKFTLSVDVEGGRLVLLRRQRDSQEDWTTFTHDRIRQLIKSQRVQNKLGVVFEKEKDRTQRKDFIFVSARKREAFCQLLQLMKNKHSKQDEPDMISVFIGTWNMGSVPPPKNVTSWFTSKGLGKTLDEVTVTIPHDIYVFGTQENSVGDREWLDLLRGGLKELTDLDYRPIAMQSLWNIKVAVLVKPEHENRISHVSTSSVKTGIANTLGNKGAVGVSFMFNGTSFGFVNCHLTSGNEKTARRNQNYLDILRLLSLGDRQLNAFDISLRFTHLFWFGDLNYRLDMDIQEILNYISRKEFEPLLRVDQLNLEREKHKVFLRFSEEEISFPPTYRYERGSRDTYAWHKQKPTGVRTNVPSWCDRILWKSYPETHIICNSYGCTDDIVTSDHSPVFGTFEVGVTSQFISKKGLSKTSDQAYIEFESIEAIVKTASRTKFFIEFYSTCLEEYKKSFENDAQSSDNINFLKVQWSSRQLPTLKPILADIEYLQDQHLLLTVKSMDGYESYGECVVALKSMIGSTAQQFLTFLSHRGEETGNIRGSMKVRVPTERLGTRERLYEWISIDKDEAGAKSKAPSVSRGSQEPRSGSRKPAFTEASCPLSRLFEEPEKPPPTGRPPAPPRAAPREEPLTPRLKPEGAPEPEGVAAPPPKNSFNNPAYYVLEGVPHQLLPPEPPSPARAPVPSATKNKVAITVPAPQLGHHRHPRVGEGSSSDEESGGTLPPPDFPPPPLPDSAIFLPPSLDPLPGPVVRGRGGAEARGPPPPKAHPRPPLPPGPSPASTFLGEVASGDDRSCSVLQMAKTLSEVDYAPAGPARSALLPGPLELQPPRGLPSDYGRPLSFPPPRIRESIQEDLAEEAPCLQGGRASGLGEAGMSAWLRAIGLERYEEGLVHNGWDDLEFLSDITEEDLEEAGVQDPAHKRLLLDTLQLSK

[8] = target: T8, SH2D1A (Homo sapiens, UniProt O60880); assay: biochemical; conditions: for remaining activity at 10 µM: read-out: percent of DMSO vehicle control
T8 construct: made in house; host or cells: HEK293 (transient transfection), unpurified extract
T8 sequence (O60880 1-128): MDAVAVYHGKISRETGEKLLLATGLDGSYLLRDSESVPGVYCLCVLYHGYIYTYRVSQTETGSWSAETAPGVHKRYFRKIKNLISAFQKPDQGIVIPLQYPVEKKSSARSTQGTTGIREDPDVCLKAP

[9] = primary screen, 10 μM, read-out: percent of DMSO vehicle control
[10] = read-out: percent of DMSO vehicle control

SMILES | percent of DMSO vehicle control [4] | remaining activity at 10 µM [1] | percent of DMSO vehicle control at 10 µM [2, 10] | remaining activity at 10 µM [3] | percent of DMSO vehicle control at 10 µM [5, 10] | percent of DMSO vehicle control at 10 µM [6, 10] | remaining activity at 10 µM [7] | remaining activity at 10 µM [8] | Kd [3] | further results
O=C(CCl)Nc1cccc(CNC(=O)[C@H](Cc2ccc(OP(=O)(O)O)cc2)NC(=O)Cc2ccc(F)cc2)c1 [MN551] | 85.0±0.9% |  |  |  |  |  |  |  |  | Kd ([1]; dose-response, read-out: KD): 46 nM; remaining activity at 10 µM ([1]; primary screen, 10 μM): 3.2 ± 4.3%; remaining activity at 10 µM [2, 9]: 95.7 ± 8.1%; KD ([3]; dose-response): No Hit; remaining activity at 10 µM ([3]; primary screen, 10 μM): 25.9%; remaining activity at 10 µM [5, 9]: 171%; remaining activity at 10 µM [6, 9]: 81.2%; KD ([7]; dose-response): No Hit; remaining activity at 10 µM ([7]; primary screen, 10 μM): 31.7%; remaining activity at 10 µM ([8]; primary screen, 10 μM): 77.9 ± 2.2%
CC[C@H](C)[C@H](NC(=O)[C@H](CCC(=O)O)NC(=O)[C@H](CCC(=O)O)NC(=O)[C@H](Cc1ccc(OP(=O)(O)O)cc1)NC(C)=O)C(=O)N[C@@H](CCC(=O)O)C(N)=O [Ac-pYEEIE-NH2] (Ac-[pY]EEIE-NH2) | 116.6% |  |  |  |  |  |  |  |  | percent of DMSO vehicle control ([1]; primary screen, 10 μM): 131.9%; percent of DMSO vehicle control ([2]; primary screen, 10 μM): 96.3±8.9%; percent of DMSO vehicle control ([3]; primary screen, 10 μM): 61.9±0.0%; percent of DMSO vehicle control ([5]; primary screen, 10 μM): 91.4±3.8%; percent of DMSO vehicle control ([6]; primary screen, 10 μM): 97.9±8.6%; percent of DMSO vehicle control ([7]; primary screen, 10 μM): 62.5±0.8%; percent of DMSO vehicle control ([8]; primary screen, 10 μM): 93.4%
CC(=O)N1CC[C@H]2CC[C@@H](C(=O)N[C@@H](CCC(N)=O)C(=O)NC(c3ccccc3)c3ccccc3)N2C(=O)[C@@H](NC(=O)c2cc3cc(C(F)(F)P(=O)(O)O)ccc3[nH]2)C1 [SI-109] | 109.2% | 102% | 0.1% | 110% | 0.6 ± 0.2% | 0.5 ± 0.1% | 121% | 87.6% |  | Kd [2]: 5 ± 0.56 nM; Kd [5]: 21 ± 6.8 nM; Kd [6]: 25 ± 8.3 nM
CC(=O)N[C@@H](Cc1ccc(CP(=O)(O)O)cc1)C(=O)NC1(C(=O)N[C@@H](CC(N)=O)C(=O)NCCCc2c(O)ccc3ccccc23)CCCCC1 [CGP78850] | 125.2±9.1% | 117 ± 15.1% | 82.4 ± 3.2% | 5 ± 1.1% | 97.4 ± 6.3% | 80.6 ± 2.9% | 106 ± 9.3% | 63.8 ± 17.1% | 508 nM | 
CC[C@H](C)[C@H](NC(=O)[C@H](CCC(=O)O)NC(=O)[C@H](CCC(=O)O)NC(=O)[C@H](Cc1ccc(OP(=O)(O)O)cc1)NC(=O)/C=C/c1ccc(O)c(O)c1)C(=O)N[C@@H](CCC(=O)O)C(=O)O [Caffeic acid-pYEEIE] (Caffeoyl-[pY]EEIE-OH) | 92.8±10.0% | 4.9 ± 6.9% | 81.4 ± 6.7% | 3.1 ± 0.7% | 108 ± 9.3% | 85.3 ± 2.1% | 0.2% | 79.8 ± 21.3% | 2600 ± 740 nM | Kd [1]: 430 ± 980 nM; Kd [7]: 230 ± 120 nM
